Test results reported in article PMC10854894, “A New Benzo[6,7]oxepino[3,2-b] Pyridine Derivative Induces Apoptosis in Canine Mammary Cancer Cell Lines” (Animals : an Open Access Journal from MDPI, 2024).
Like-named read-outs stand apart in the source and are kept apart here.

How the values were obtained:
Assay in all cases: MTT cell proliferation/cytotoxicity assay
Type in all cases: cell-based, canine
Conditions in all cases: Canis lupus familiaris, read-out: Half-Maximal Inhibitory Concentration (IC50)
REM134 cells = test system: REM134 cells
Experimental: (§1) The cytotoxic effects of the three BZOP derivatives were studied via the 3-(4,5-Dimethyl-2-thiazolyl)-2,5-diphenyl-2H-tetrazolium bromide (MTT) assay. The REM134, CMGT071020, and MDCK cell lines were seeded at a density of 5 × 10^3 cells/well in 96-well plates and allowed to grow for 24 h. They were then treated with the three BZOP derivatives at various concentrations (0–300 µM) for 24 or 48 h, whereas cells treated with the culture medium containing 0.1% dimethyl sulfoxide (DMSO) were used as a negative control as the compounds were dissolved in DMSO. Subsequently, the cells were incubated with 10 µL of an MTT solution (Sigma, St. Louis, MO, USA) for 4 h. After the incubation with MTT solution, 100 µL of a solubilization solution was added to dissolve water-insoluble purple formazan crystals, and the plate was incubated overnight at 37 °C in 5% CO2. The absorbance of the formazan solution was measured using a Synergy H1 hybrid multi-mode microplate reader (BioTek, Winooski, VT, USA) at 570 nm. The experiment was conducted with four replicates, and the relative cell viability (%) of the treated cells was expressed as a percentage relative to the untreated control cells, which were considered to have 100% viability.

CMGT071020 cells = test system: CMGT071020 cells
Experimental: as §1

MDCK cells = test system: MDCK cells
Experimental: as §1

| Structure (SMILES) | IC50 (REM134 cells; REM134, 24 h) | IC50 (REM134 cells; REM134, 48 h) | IC50 (CMGT071020 cells; CMGT071020, 24 h) | IC50 (CMGT071020 cells; CMGT071020, 48 h) | IC50 (MDCK cells; 24 h) | IC50 (MDCK cells; 48 h) |
| --- | --- | --- | --- | --- | --- | --- |
| [O-][n+]1cccc2c1C=Cc1ccncc1O2 [OPDOc, oxepino(3,2-b:7,6-c’)dipyridine 1-oxide] | > 300 µM | > 300 µM | > 300 µM | > 300 µM | > 300 µM | > 300 µM |
| [O-][n+]1cccc2c1C=Cc1cccnc1O2 [OPDOb, oxepino(2,3-b:6,7-b’)dipyridine 1-oxide] | > 300 µM | 172 µM | > 300 µM | > 300 µM | > 300 µM | > 300 µM |
